The values that follow come from article PMC11126915, “iATPSnFR2: A high-dynamic-range fluorescent sensor for monitoring intracellular ATP” (Proceedings of the National Academy of Sciences of the …, 2024).

Structures are written as SMILES.

The test system of assay [1] is T1, iATPSnFR2.A95A.A119L.
T1 construct: epsilon subunit residues 1-109, linker 1 VLVG, cpSFGFP, linker 2 ICV, residues 110-129, C-terminal HaloTag conjugated to JFX650
Put plainly: Equilibrium fluorescence titration of 0.2 µM purified sensor HaloTag-JFX650 conjugate with ATP and ADP head-to-head (ex 485 nm, em 535 nm) in Mammalian Cell Imaging Buffer (20 mM HEPES, 119 mM NaCl, 2.5 mM KCl, 2 mM MgCl2, 2 mM CaCl2, pH 7.2). The note with it: n = 3; read-out: Binding curve fits, in µM, for ATP and ADP (affinity). The method, then: (§1) Purified protein was mixed with 1.1 molar equivalents of JFX650 HaloTag ligand and incubated at room temperature for 1 h and then at 4 °C overnight. Excess HaloTag ligand was removed by gel filtration on a PD-10 column (GE Life Sciences) and reconcentrated by ultrafiltration.
(§2) All in vitro assays were performed in Mammalian Cell Imaging Buffer unless otherwise noted. iATPSnFR2 equilibrium measurements (affinity, specificity, pH) were performed with 0.2 µM protein in a Tecan Spark fluorimeter with 20 nm bandpass windows and excitation at 485 nm and emission at 535 nm.
(§3) Supplementary Figure 1a. In vitro characterization: ATP & ADP affinity. Three variants of iATPSnFR2.HaloTag-JFX650 titrated with ATP (black) and ADP (grey), head-to-head. iATPSnFR2.S29W.A95K (left); iATPSnFR2.A95K (center); iATPSnFR2.A95A.A119L (right). Binding curve fits, in µM, for ATP and ADP are S29W.A95K: 4 µM, 400 µM. A95K: 16 µM, 780 µM.
(§4) A95A.A119L: 530 µM, 5300 µM. Error bars are s.d. of three technical replicates. […]

The test system of assay [2] is T2, iATPSnFR2.A95K.
T2 construct: epsilon subunit residues 1-109, linker 1 VLVG, cpSFGFP, linker 2 ICV, residues 110-129, C-terminal HaloTag conjugated to JFX650
The assay is described as above. The note with it: n = 3; read-out: Binding curve fits, in µM, for ATP and ADP (affinity). As for the experimental part: as §1, §2, §3, §4

In assay [3] the test system is T3, iATPSnFR2.S29W.A95K.
T3 construct: epsilon subunit residues 1-109, linker 1 VLVG, cpSFGFP, linker 2 ICV, residues 110-129, C-terminal HaloTag conjugated to JFX650
The assay is described as above. The note with it: n = 3; read-out: Binding curve fits, in µM, for ATP and ADP (affinity). As for the experimental part:
as §1, §2, §3, §4

Assay [4] has as its system T1, iATPSnFR2.A95A.A119L. Kind of assay: Separate head-to-head equilibrium fluorescence titration of 0.2 µM purified sensor HaloTag-JFX650 conjugate with ATP and other nucleoside triphosphates (ex 485 nm, em 535 nm) in Mammalian Cell Imaging Buffer, pH 7.2. The settings on record: n = 3; read-out: Binding curve fits, in µM, for ATP, CTP, GTP (binding specificity). As for the experimental part: as §1, §2
(§5) [NTP], µM [NTP], µM [NTP], µM
(§6) Supplementary Figure 1d. In vitro characterization: binding specificity. iATPSnFR2 affinity for ATP
(§7) and other nucleoside triphosphates. Three variants of iATPSnFR2.HaloTag-JFX650 titrated with ATP
(§8) and other NTPs, head-to-head. S29W.A95K (left); A95K (center); A95A.A119L (right). ATP (black),
(§9) CTP (cyan), GTP (grey), TTP (purple). Binding curve fits, in µM, for ATP, CTP, GTP are S29W.A95K:
(§10) Error bars are s.d. of three technical replicates.

Assay [5] deals with T2, iATPSnFR2.A95K. The description is as above. The note with it: n = 3; read-out: Binding curve fits, in µM, for ATP, CTP, GTP (binding specificity). The method, then:
as §1, §2, §5, §6, §7, §8, §9, §10

In assay [6] the test system is T3, iATPSnFR2.S29W.A95K. The assay is described as above. The note with it: n = 3; read-out: Binding curve fits, in µM, for ATP, CTP, GTP (binding specificity). As for the experimental part: as §1, §2, §5, §6, §7, §8, §9, §10
Assay [7] deals with nerve terminals of dissociated hippocampal neurons. Kind of assay: ATP depletion in nerve terminals during AP firing. It is filed as cell-based, Sprague-Dawley rats. The settings on record: 5 mM glucose + 10 µM KA, 6 s at 50 Hz. As for the experimental part:
(§11) Primary neuronal cultures were prepared as previously described ([31]). Hippocampal CA1 to CA3 regions were dissected, dissociated, and plated onto poly-L-ornithine-coated coverslips. Plating media consisted of the minimal essential medium, 0.5% glucose, insulin (0.024 g/L), transferrin ([…]), GlutaMAX 1%, N-21 (2%), and fetal bovine serum (10%). After 1 to 3 days in vitro (DIV), cells were fed and maintained in media with the following modifications: cytosine β-D-arabinofuranoside (4 µM) and FBS 5%. Cultures were incubated at 37 °C in a 95% air/5% CO2 incubator. Calcium phosphate–mediated gene transfer was performed on DIV 6 to 8, and neurons were used for experiments on DIV 14 to 21.
(§12) Coverslips were loaded onto a custom chamber ([32]), mounted on a Zeiss inverted microscope and perfused at ~100 µL min^–1 with Tyrode’s solution containing: 119 mM NaCl, 2.5 mM KCl, 5 mM glucose, 50 mM HEPES, 2 mM CaCl2, 2 mM MgCl2, 50 µM DL-2-amino-5-phosphonovaleric acid (AP5), and 10 µM 6-cyano-7-nitroquinoxaline-2,3-dione (CNQX), adjusted to pH 7.4. […] Fluorescence was stimulated with OBIS 488 nm LX or OBIS 637 nm LS lasers (Coherent) passing through a laser speckle reducer (LSR 3005 at 12° diffusion angle, Optotune). […]

The test system of assay [8] is axonal mitochondria of primary hippocampal neurons. Kind of assay: mitochondrial matrix ATP imaging in axonal mitochondria of primary neurons. It is filed as cell-based, Sprague-Dawley rats. The settings on record: 10 µM, perfusion; KA in 5 mM glucose; oligomycin in 1.25 mM lactate + 1.25 mM pyruvate.
Excerpt: iATPSnFR2.HaloTag variants were subcloned by restriction digest into an AAV vector with a CAG promoter via BglII/PstI digest from the bacterial expression vector. The pAAV.CAG vector includes an extra serine after the initial methionine and lacks a polyhistidine tag. To target the sensor to the mitochondrial matrix, four repeats of COX8(mito) leader sequence ([…]) separated by spacer (IHSLPPEGPW) were introduced at the N terminus of iAPTSnFR2(A95A/A119L). HaloTag was incorporated at the N-terminal of iATPSnFR2.A95A.A119L separated by a linker (LQSTGSGNAVGQDTQER). […]
as §12
Time series of imaging pairs (HaloTag and iATPSnFR2) were split into two independent image series using a custom-written Fiji routine to facilitate analysis. […] Synaptic boutons signals were analyzed using homemade script routines in Igor-pro v6.3.7.2 (WaveMetrics, Lake Oswego, OR, USA). […]

In assay [9] the test system is synaptic boutons of hippocampal neurons. Kind of assay: spontaneous ATP depletion in synaptic boutons (synaptophysin-targeted iATPSnFR2). It is filed as cell-based, Sprague-Dawley rats. The note with it: 5 mM glucose + 10 µM KA + 0.3 µM TTX, iATPSnFR2.A95A.A119L.HaloTag-JFX650. As for the experimental part:
as §11, §12

For assay [10], the system named is LMTK- cells. Put plainly: green:red ratio imaging of fibroblasts expressing iATPSnFR2-HaloTag variants. It is filed as cell-based, mouse. The note with it: 10 mM 2dOG replacing 10 mM glucose. The method, then: (§13) Rho° and the parental LMTK- cells were maintained in T-75 flasks with Dulbecco’s Modified Eagle's Medium (DMEM) + 10% Fetal Bovine Serum (FBS) + 1 mM pyruvate + 5 µM uridine. Two days prior to transfection, they were split into separate rows of a 24-well plate (half Rho°, half LMTK) at 0.6 and 0.1 million cells per well, respectively. Cells were transfected with iATPSnFR2.HaloTag variants by lipofectamine (0.5 µg DNA + 2 µL lipofectamine 2,000 per well) for 4 to 6 h in DMEM lacking FBS or antibiotics. Transfection medium was replaced with fresh DMEM + 10% FBS + penicillin/streptomycin overnight. Cells were labeled with JFX650 HaloTag ligand by adding the fluorophore to 100 nM for an hour. Cells were washed with Mammalian Cell Imaging Buffer and imaged in a Cytation 5 imaging reader (BioTek) over the course of about 2 h. After about 20 min of imaging to establish a baseline fluorescence, the culture plate was removed from the instrument, and buffer was replaced with the query buffer. The equilibration buffer contained 10 mM glucose, and the query buffers contained 10 mM 2dOG.
(§14) Images were background subtracted and aligned for movement artifacts with the Gen5 software package that controls the Cytation 5 instrument. Images were assembled as TIF stacks and imported into ImageJ. […] Those ROIs were used to determine the ratio of green to red fluorescence for each well. […]

The subject of assay [11] is Rho° cells. The description is as above. It is filed as cell-based, mouse. The note with it: 10 mM 2dOG replacing 10 mM glucose. The method, then:
as §13, §14

With `Nc1ncnc2c1ncn2[C@@H]1O[C@H](COP(=O)(O)OP(=O)(O)OP(=O)(O)O)[C@@H](O)[C@H]1O` [ATP, adenosine triphosphate], the Kd in assay [1] turned out to be 530 µM; in [2], 16 µM; in assay [3], 4 µM; in [4], 750 µM; in [5], 30 µM; in assay [6], 20 µM.
Take `Nc1ncnc2c1ncn2[C@@H]1O[C@H](COP(=O)(O)OP(=O)(O)O)[C@@H](O)[C@H]1O` [ADP, adenosine diphosphate]: the Kd in assay [1] was 5300 µM; in assay [2], 780 µM; in assay [3], 400 µM.
Take `CC(C)[C@H]1CC[C@@]2(CO2)[C@H]2C(=O)OCC(C(=O)O)=C[C@H]12` [KA, koningic acid]: the “effect on iATPSnFR2 fluorescence during AP stimulation” value in assay [7] is listed as “even greater decrease in fluorescence that did not recover”. Also, in assay [8], the “effect on mitochondrial ATP signal (mito-iATPSnFR2.HaloTag)” value was “rapid drop in the ATP signal”. Moreover, the “effect on average green to red fluorescence ratio in boutons” value in assay [9] was “gradually declined over a 5 to 10 min period”.
With `O=CC[C@@H](O)[C@H](O)[C@H](O)CO` [2dOG, 2-deoxyglucose], the “effect on green fluorescence of iATPSnFR2 variants” value in assay [10] is on record as “decreased fluorescence only in those expressing the weakest affinity variant”; in assay [11] it was “green fluorescence rapidly dropped”.
With `CC[C@H]1/C=C/C=C/C[C@@H](C)[C@H](O)[C@@](C)(O)C(=O)[C@@H](C)[C@H](O)[C@@H](C)C(=O)[C@@H](C)[C@H](O)[C@@H](C)/C=C/C(=O)O[C@@H]2[C@H](C)[C@H](CC1)O[C@]1(CC[C@H](C)[C@H](C[C@@H](C)O)O1)[C@H]2C` [oligomycin], the “effect on mitochondrial ATP signal (mito-iATPSnFR2.HaloTag)” value in [8] is “further collapse of the ATP signal”.
Consider `Nc1ccn([C@@H]2O[C@H](COP(=O)(O)OP(=O)(O)OP(=O)(O)O)[C@@H](O)[C@H]2O)c(=O)n1` [CTP, cytidine triphosphate], for which the figures for the Kd in [4], in [5] and in [6] were ~10000 µM, 100 µM and 50 µM, respectively.
On to `Nc1nc2c(ncn2[C@@H]2O[C@H](COP(=O)(O)OP(=O)(O)OP(=O)(O)O)[C@@H](O)[C@H]2O)c(=O)[nH]1` [GTP, guanosine triphosphate], for which the Kd in assay [4] is ~10000 µM; in [5], 1500 µM; in assay [6] it was 430 µM.
